Data published in US8828992B2, “Substituted azole derivatives, pharmaceutical composition containing the derivatives, and method for treating Parkinson's disease using the same” (priority 2009, dated 2014).
Read-outs that look alike come from different tables or passages of the source.

Assays:
[1] = target: T1, Monoamineoxidase B type human-derived enzyme (Homo sapiens, UniProt P27338); assay: Inhibitory effects on the activity of MAO-B (Amplex Red fluorescence, benzylamine substrate); format: biochemical; conditions: for inhibition at 0.01 µM: read-out: Inhibitory effects (%) on the activity of MAO-B; for inhibition at 0.1 µM: treatment concentration 100 nM
T1 sequence (P27338 1-520): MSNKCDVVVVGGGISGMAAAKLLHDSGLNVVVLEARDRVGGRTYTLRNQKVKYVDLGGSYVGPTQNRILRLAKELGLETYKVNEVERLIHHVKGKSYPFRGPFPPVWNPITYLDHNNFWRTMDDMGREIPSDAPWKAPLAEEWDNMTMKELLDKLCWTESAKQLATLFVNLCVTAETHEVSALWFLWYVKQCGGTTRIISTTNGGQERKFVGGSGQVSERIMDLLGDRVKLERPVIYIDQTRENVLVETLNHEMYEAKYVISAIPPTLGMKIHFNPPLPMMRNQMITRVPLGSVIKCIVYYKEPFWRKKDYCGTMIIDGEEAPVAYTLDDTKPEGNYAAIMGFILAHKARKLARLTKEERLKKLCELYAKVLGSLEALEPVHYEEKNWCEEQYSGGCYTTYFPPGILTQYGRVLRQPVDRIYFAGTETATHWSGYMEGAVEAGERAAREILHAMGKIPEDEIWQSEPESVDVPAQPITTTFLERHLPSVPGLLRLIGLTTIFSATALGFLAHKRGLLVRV
Experimental: Monoamineoxidase A or B type human-derived enzyme (5 mg/ml) was each diluted with 0.05 M sodium phosphate buffer (pH 7.4) to yield a dilution of 1:200, and then 100 μl of an enzyme buffer containing 2 μl of a compound 1 solution at the corresponding concentration was placed in a test plate (flat-bottom) and incubated for 30 minutes.
100 μl of a working buffer containing 400 μM of Amplex Red reagent, 2 U/ml horseradish peroxidase, and 2 mM substrate (tyramine for MAO-A and benzylamine for MAO-B) in 0.05 M sodium phosphate buffer (pH 7.4) was mixed with a pre-incubated enzyme buffer at 1:1 and measured using fluorescence (EX: 563 nm & EM: 587 nm) for 30 minutes.

[2] = test system: dopamine (DA) in the striatum of a MPTP-treated mouse; assay: Combined administration with Levodopa group: dopamine in the striatum of MPTP-treated mouse (HPLC); format: in vivo; conditions: compound 1 mg/kg PO co-administered with Levodopa group (Levodopa 50 mg/kg + Benzerazide 25 mg/kg IP); for Concentration of dopamine compared to a control group %, 1 hr: 1 hr after Levodopa; for Concentration of dopamine compared to a control group %, 3 hr: 3 hr after Levodopa
Experimental: MPTP (20 mg/kg, free base; Sigma, St. louis, Mo.) was administered to an 8 week old (20-25 g) male C57BL/6 test mouse intraperitoneally at the interval of 2 hours to construct a model.
In order to observe the effects of combined administration of a compound of the present invention and Levodopa, the compound of the present invention was dissolved in a solution containing 0.02 ml of dimethylsulfoxide (DMSO), 0.02 ml of Cremophor, 0.08 ml of polyethyleneglycol (PEG), and 0.08 ml of physiological saline. The resulting solution was orally administered at doses of 1 mg/kg one week after the MPTP treatment, and a Levodopa group containing Levodopa at 50 mg/kg and Benzerazide at 25 mg/kg was intraperitoneally administered 1 hour later.
A single administration of the Levodopa group in the following Table 4 indicates values resulting from a MPTP (toxin) treatment followed by an administration of the Levodopa group compared to the treatment results of a Levodopa single administration group of Levodopa and Benzerazide.
At 1 hour and 3 hours after administration of Levodopa, the animals were sacrificed by cervical vertebra dislocation and the brain tissues were immediately isolated from the animals. 0.5 me of iced solution for HPLC analysis (0.1 M perchloric acid and 0.1 mM EDTA) was added to a striatum obtained from the isolated brain tissues, and an ultrasonic grinder was used to prepare a tissue homogenate. The tissue homogenate was centrifuged at 12,000 rpm for 15 minutes, and its supernatant was filtered through nitrocellulose membrane filter (0.2 um, Millipore). For HPLC analysis, uBondapak™ C18 column (4.6×150 mm, particle size 10 μm: Shisheido, Japan) was used, the flow rate of the mobile phase (0.07 M monobasic sodium phosphate, 1 mM sodium octasulfonic acid, 0.1 uM EDTA, 5% acetonitrile, pH 3.2) was maintained at 0.5 me/min, and the electrode potential of the electrochemical detector (CouloChem III, ESA, Japan) was set at 350 mV.

| SMILES | inhibition at 0.01 µM ([1]; treatment concentration 10 nM) [%] | further results |
| --- | --- | --- |
| NC(=O)OCc1nc(-c2ccc(OCc3ccccc3)cc2)no1 [Example 2, carbamic acid 3-(4-benzyloxy-phenyl)-[1,2,4]oxadiazol-5-ylmethyl ester] |  | inhibition at 0.01 µM [1]: 95%; Concentration of dopamine compared to a control group %, 1 hr [2]: 106.12%; Concentration of dopamine compared to a control group %, 3 hr [2]: 43.6% |
| O=C(OCc1cc(-c2ccc(OCc3ccccc3)cc2)no1)n1ccnc1 [Example 120, Imidazole-1-carboxylic acid 3-(4-benzyloxy-phenyl)-isoxazol-5-ylmethyl ester] | 87.8 | Concentration of dopamine compared to a control group %, 1 hr [2]: 148.5%; Concentration of dopamine compared to a control group %, 3 hr [2]: 53.9% |
| O=C(OCc1cc(-c2ccc(OCc3ccccc3)cc2)no1)N1CCOCC1 [Example 127, morpholine-4-carboxylic acid 3-(4-benzyloxy-phenyl)-isoxazol-5-ylmethyl ester] | 45.3 | Concentration of dopamine compared to a control group %, 1 hr [2]: 140.7%; Concentration of dopamine compared to a control group %, 3 hr [2]: 60.4% |
| NCCCNC(=O)OCc1cc(-c2ccc(OCc3ccccc3)cc2)no1 [Example 130, (3-amino-propyl)-carbamic acid 3-(4-benzyloxy-phenyl)-isoxazol-5-ylmethyl ester] | 52.9 | Concentration of dopamine compared to a control group %, 1 hr [2]: 131.9%; Concentration of dopamine compared to a control group %, 3 hr [2]: 77.0% |
| CN(C)Cc1cc(-c2ccc(OCc3ccccc3)cc2)no1 [Example 150, [3-(4-benzyloxy-phenyl)-isoxazol-5-ylmethyl]-dimethyl-amine] | 97.4 |  |
| CCN(CC)Cc1cc(-c2ccc(OCc3ccccc3)cc2)no1 [Example 151, [3-(4-benzyloxy-phenyl)-isoxazol-5-ylmethyl]-diethyl-amine] | 96.8 |  |
| NC(=O)NCc1cc(-c2ccc(OCc3ccccc3)cc2)no1 [Example 152, [3-(4-benzyloxy-phenyl)-isoxazol-5-ylmethyl]-urea] | 96.1 | Concentration of dopamine compared to a control group %, 1 hr [2]: 87.0%; Concentration of dopamine compared to a control group %, 3 hr [2]: 77.0% |
| Fc1ccc(COc2ccc(-c3cc(Cn4ccnc4)on3)cc2)c(F)c1 [Example 154, 3-[4-(2,4-difluoro-benzyloxy)-phenyl]-5-imidazol-1-ylmethyl-isoxazole] | 82.7 |  |
| Fc1cc(F)c(COc2ccc(-c3cc(Cn4ccnc4)on3)cc2)c(F)c1 [Example 155, 5-imidazol-1-ylmethyl-3-[4-(2,4,6-trifluoro-benzyloxy)-phenyl]-isoxazole] | 70.7 |  |
| Fc1ccc(COc2ccc(-c3cc(Cn4ccnc4)on3)cc2)cc1 [Example 156, 3-[4-(4-fluoro-benzyloxy)-phenyl]-5-imidazol-1-ylmethyl-isoxazole] | 74.5 |  |
| Clc1ccc(COc2ccc(-c3cc(Cn4ccnc4)on3)cc2)cc1 [Example 157, 3-[4-(4-chloro-benzyloxy)-phenyl]-5-imidazol-1-ylmethyl-isoxazole] | 37.2 |  |
| NC(=O)C(CO)NCc1cc(-c2ccc(OCc3ccccc3)cc2)no1 (stereo not drawn) [Example 167, 2-{[3-(4-benzyloxy-phenyl)-isoxazol-5-ylmethyl]-amino}-3-hydroxy-propionamide] | 21.8 |  |
| OCCNCc1cc(-c2ccc(OCc3ccccc3)cc2)no1 [Example 168, 2-{[3-(4-benzyloxy-phenyl)-isoxazol-5-ylmethyl]-amino}-ethanol] | 44.7 |  |
| COCCNCc1cc(-c2ccc(OCc3ccccc3)cc2)no1 [Example 174, [3-(4-benzyloxy-phenyl)-isoxazol-5-ylmethyl]-(2-methoxy-ethyl)-amine] | 52.7 |  |
| C=CCNCc1cc(-c2ccc(OCc3ccccc3)cc2)no1 [Example 176, Allyl-[3-(4-benzyloxy-phenyl)-isoxazol-5-ylmethyl]-amine] | 71.5 |  |
| NC(=O)OCCNCc1cc(-c2ccc(OCc3ccccc3)cc2)no1 [Example 177, Carbamic acid 2-{[3-(4-benzyloxy-phenyl)-isoxazol-5-ylmethyl]-amino}-ethyl ester] | 31.7 |  |
| C#CCN(C)Cc1cc(-c2ccc(OCc3ccccc3)cc2)no1 [Example 178, [3-(4-benzyloxy-phenyl)-isoxazol-5-ylmethyl]-methyl-prop-2-ynyl-amine] | 64 |  |
| CC(C)c1nccn1Cc1cc(-c2ccc(OCc3ccccc3)cc2)no1 [Example 179, 3-(4-benzyloxy-phenyl)-5-(2-isopropyl-imidazol-1-ylmethyl)-isoxazole] | 26.7 |  |
| CCc1nc(C)cn1Cc1cc(-c2ccc(OCc3ccccc3)cc2)no1 [Example 186, 3-(4-benzyloxy-phenyl)-5-(2-ethyl-4-methyl-imidazol-1-ylmethyl)-isoxazole] | 51.2 |  |
| NC(=O)OCc1cc(-c2ccc(OCC3CCCC3)cc2)no1 [Example 193, Carbamic acid 3-(4-cyclopentylmethoxy-phenyl)-isoxazol-5-ylmethyl ester] |  | inhibition at 0.01 µM [1]: 88.1% |
| NC(=O)OCc1cc(-c2ccc(OCc3ccc(F)cc3F)cc2)no1 [Example 196, carbamic acid 3-[4-(2,4-difluoro-benzyloxy)-phenyl]-isoxazol-5-ylmethyl ester] |  | inhibition at 0.1 µM [1]: 97.1% |
| NC(=O)OCc1cc(-c2ccc(OCc3cc(F)ccc3F)cc2)no1 [Example 197, carbamic acid 3-[4-(2,5-difluoro-benzyloxy)-phenyl]-isoxazol-5-ylmethyl ester] |  | inhibition at 0.1 µM [1]: 96.7% |
| NC(=O)OCc1cc(-c2ccc(OCc3ccc(Cl)cc3Cl)cc2)no1 [Example 198, carbamic acid 3-[4-(2,4-dichlorobenzyloxy)-phenyl]-isoxazol-5-ylmethyl ester] |  | inhibition at 0.1 µM [1]: 95.7% |
| NC(=O)OCc1cc(-c2ccc(OCc3c(F)cccc3Cl)cc2)no1 [Example 199, Carbamic acid 3-[4-(2-chloro-6-fluorobenzyloxy)-phenyl]-isoxazol-5-ylmethyl ester] | 83.2 |  |
| Cc1cccc(COc2ccc(-c3cc(COC(N)=O)on3)cc2)c1 [Example 200, carbamic acid 3-[4-(3-methyl-benzyloxy)-phenyl]-isoxazol-5-ylmethyl ester] | 87.6 |  |
| NC(=O)OCc1cc(-c2ccc(OCc3ccccc3C(F)(F)F)cc2)no1 [Example 201, carbamic acid 3-[4-(2-trifluoromethyl-benzyloxy)-phenyl]-isoxazol-5-ylmethyl ester] | 72.4 |  |
| NC(=O)OCc1cc(-c2ccc(OCc3ccc(C(F)(F)F)cc3)cc2)no1 [Example 202, carbamic acid 3-[4-(4-trifluoromethyl-benzyloxy)-phenyl]-isoxazol-5-ylmethyl ester] |  | inhibition at 0.1 µM [1]: 95.5% |
| NC(=O)OCc1cc(-c2ccc(OCc3ccc4c(c3)OCO4)cc2)no1 [Example 203, carbamic acid 3-[4-(benzo[1,3]dioxol-5-ylmethoxy)-phenyl]-isoxazol-5-ylmethyl ester] | 93 |  |
| CC(C)(C)[N+]([O-])=Cc1cccc(COc2ccc(-c3cc(COC(N)=O)on3)cc2)c1 [Example 204, carbamic acid 3-{4-[3-(t-butylnitronyl)-benzyloxy]-phenyl}-isoxazol-5-ylmethyl ester] |  | Inhibitory effects (%) on the activity of MAO-B ([1]; treatment concentration 10 nM): 98.8% |
